Assay results published in US20230013823A1, “INHIBITORS OF HUMAN IMMUNODEFICIENCY VIRUS REPLICATION” (VIV HEALTHCARE UK (No. 5) LIMITED, priority 2019, published 2023).
pEC50: −log10 of the molar value.

Experiments:
[1] = test system: recombinant NL4-3 virus (Renilla luciferase in nef); test: HIV cell culture assay (antiviral activity, luciferase readout in MT-2 cells); assay type: cell-based; conditions: Renilla, NL43
Procedure, shortened: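 MT-2 cells were infected for 4-5 days with 293T-derived recombinant NL4-3 reporter virus in the presence of serially diluted compound. Antiviral activity was quantified as luciferase activity using a live-cell substrate. EC50 was derived from the median effect equation.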

[2] = Compound cytotoxicity, XTT-based colorimetric assay; assay type: cell-based; conditions: human; uninfected MT2 cells, day 4, XTT
Protocol: Compound cytotoxicity and the corresponding CC50 values were determined using the same protocol as described in the antiviral assay except that uninfected cells were used. Cytotoxicity was assessed on day 4 in uninfected MT2 cells by using an XTT (2,3-bis[2-Methoxy-4-nitro-5-sulfophenyl]-2H-tetrazolium-5-carboxyanilide inner salt)-based colorimetric assay (Sigma-Aldrich, St Louis, Mo.).

SMILES	pEC50 [1]	CC50 at 4 days [2]
Cn1nc(NS(C)(=O)=O)c2c(Cl)ccc(-n3c([C@H](Cc4cc(F)cc(F)c4)NC(=O)Cn4nc(C(F)F)c5c4C(F)(F)[C@@H]4C[C@H]54)nc4cc(-c5nccnc5C(F)(F)F)ccc4c3=O)c21 (atropisomer, axis not shown; (P)) [Example 23, N—((S)-1-((3P)-3-(4-chloro-1-methyl-3-(methylsulfonamido)-1H-indazol-7-yl)-4-oxo-7-(3-(trifluoromethyl)pyrazin-2-yl)-3,4-dihydroquinazolin-2-yl)-2-(3,5-difluorophenyl)ethyl)-2-((3bS,4aR)-3-(difluoromethyl)-5,5-difluoro-3b,4,4a,5-tetrahydro-1H-cyclopropa[3,4]cyclopenta[1,2-c]pyrazol-1-yl)acetamide]	10.15	> 100 nM
Cn1nc(NS(C)(=O)=O)c2c(Cl)ccc(-n3c([C@H](Cc4cc(F)cc(F)c4)NC(=O)Cn4nc(C(F)F)c5c4C(F)(F)[C@@H]4C[C@H]54)nc4cc(-c5cncc(C(F)F)c5)ccc4c3=O)c21 (atropisomer, axis not shown; (P)) [Example 17, N—((S)-1-((3P)-3-(4-chloro-1-methyl-3-(methylsulfonamido)-1H-indazol-7-yl)-7-(5-(difluoromethyl)pyridin-3-yl)-4-oxo-3,4-dihydroquinazolin-2-yl)-2-(3,5-difluorophenyl)ethyl)-2-((3bS,4aR)-3-(difluoromethyl)-5,5-difluoro-3b,4,4a,5-tetrahydro-1H-cyclopropa[3,4]cyclopenta[1,2-c]pyrazol-1-yl)acetamide]	10.11	> 500 nM
Cc1cc(-c2ccc3c(=O)n(-c4ccc(Cl)c5c(NS(C)(=O)=O)nn(C)c45)c([C@H](Cc4cc(F)cc(F)c4)NC(=O)Cn4nc(C(F)F)c5c4C(F)(F)[C@@H]4C[C@H]54)nc3c2)nc(C(F)(F)F)n1 (atropisomer, axis not shown; (P)) [Example 26, N—((S)-1-((3P)-3-(4-chloro-1-methyl-3-(methylsulfonamido)-1H-indazol-7-yl)-7-(6-methyl-2-(trifluoromethyl)pyrimidin-4-yl)-4-oxo-3,4-dihydroquinazolin-2-yl)-2-(3,5-difluorophenyl)ethyl)-2-((3bS,4aR)-3-(difluoromethyl)-5,5-difluoro-3b,4,4a,5-tetrahydro-1H-cyclopropa[3,4]cyclopenta[1,2-c]pyrazol-1-yl)acetamide]	10.06	> 100 nM
Cn1nc(NS(C)(=O)=O)c2c(Cl)ccc(-n3c([C@H](Cc4cc(F)cc(F)c4)NC(=O)Cn4nc(C(F)F)c5c4C(F)(F)[C@@H]4C[C@H]54)nc4cc(-c5ccn(CC(F)(F)C(F)(F)F)n5)ccc4c3=O)c21 (atropisomer, axis not shown; (P)) [Example 48, N—((S)-1-((3P)-3-(4-chloro-1-methyl-3-(methylsulfonamido)-1H-indazol-7-yl)-4-oxo-7-(1-(2,2,3,3,3-pentafluoropropyl)-1H-pyrazol-3-yl)-3,4-dihydroquinazolin-2-yl)-2-(3,5-difluorophenyl)ethyl)-2-((3bS,4aR)-3-(difluoromethyl)-5,5-difluoro-3b,4,4a,5-tetrahydro-1H-cyclopropa[3,4]cyclopenta[1,2-c]pyrazol-1-yl)acetamide]	10.04	> 100 nM
Cn1nc(NS(C)(=O)=O)c2c(Cl)ccc(-n3c([C@H](Cc4cc(F)cc(F)c4)NC(=O)Cn4nc(C(F)F)c5c4C(F)(F)[C@@H]4C[C@H]54)nc4cc(-c5ncc(F)cn5)ccc4c3=O)c21 (atropisomer, axis not shown; (P)) [Example 24, N—((S)-1-((3P)-3-(4-chloro-1-methyl-3-(methylsulfonamido)-1H-indazol-7-yl)-7-(5-fluoropyrimidin-2-yl)-4-oxo-3,4-dihydroquinazolin-2-yl)-2-(3,5-difluorophenyl)ethyl)-2-((3bS,4aR)-3-(difluoromethyl)-5,5-difluoro-3b,4,4a,5-tetrahydro-1H-cyclopropa[3,4]cyclopenta[1,2-c]pyrazol-1-yl)acetamide]	10.35	> 100 nM
Cn1nc(NS(C)(=O)=O)c2c(Cl)ccc(-n3c([C@H](Cc4cc(F)cc(F)c4)NC(=O)Cn4nc(C(F)F)c5c4C(F)(F)[C@H]4C[C@H]54)nc4cc(-c5cnn(C(F)F)c5)ccc4c3=O)c21 (atropisomer, axis not shown; (P)) [Example 35, N—((S)-1-((3P)-3-(4-chloro-1-methyl-3-(methylsulfonamido)-1H-indazol-7-yl)-7-(1-(difluoromethyl)-1H-pyrazol-4-yl)-4-oxo-3,4-dihydroquinazolin-2-yl)-2-(3,5-difluorophenyl)ethyl)-2-((3bS,4aR)-3-(difluoromethyl)-5,5-difluoro-3b,4,4a,5-tetrahydro-1H-cyclopropa[3,4]cyclopenta[1,2-c]pyrazol-1-yl)acetamide]	10.04	> 100 nM
CS(=O)(=O)Nc1nn(CCCF)c2c(-n3c([C@H](Cc4cc(F)cc(F)c4)NC(=O)Cn4nc(C(F)F)c5c4C(F)(F)[C@@H]4C[C@H]54)nc4cc(-c5ccnn5CC(F)(F)C(F)F)ccc4c3=O)ccc(Cl)c12 [Example 62, N—((S)-1-((3P)-3-(4-chloro-1-(3-fluoropropyl)-3-(methylsulfonamido)-1H-indazol-7-yl)-4-oxo-7-(1-(2,2,3,3-tetrafluoropropyl)-1H-pyrazol-5-yl)-3,4-dihydroquinazolin-2-yl)-2-(3,5-difluorophenyl)ethyl)-2-((3bS,4aR)-3-(difluoromethyl)-5,5-difluoro-3b,4,4a,5-tetrahydro-1H-cyclopropa[3,4]cyclopenta[1,2-c]pyrazol-1-yl)acetamide]	10.13	> 100 nM
Cn1nc(NS(C)(=O)=O)c2c(Cl)ccc(-n3c([C@H](Cc4cc(F)cc(F)c4)NC(=O)Cn4nc(C(F)F)c5c4C(F)(F)[C@@H]4C[C@H]54)nc4cc(-c5ccn(CCC(F)(F)F)n5)ccc4c3=O)c21 (atropisomer, axis not shown; (P)) [Example 50, N—((S)-1-((3P)-3-(4-chloro-1-methyl-3-(methylsulfonamido)-1H-indazol-7-yl)-4-oxo-7-(1-(3,3,3-trifluoropropyl)-1H-pyrazol-3-yl)-3,4-dihydroquinazolin-2-yl)-2-(3,5-difluorophenyl)ethyl)-2-((3bS,4aR)-3-(difluoromethyl)-5,5-difluoro-3b,4,4a,5-tetrahydro-1H-cyclopropa[3,4]cyclopenta[1,2-c]pyrazol-1-yl)acetamide]	10.18	> 100 nM
Cn1nc(NS(C)(=O)=O)c2c(Cl)ccc(-n3c([C@H](Cc4cc(F)cc(F)c4)NC(=O)Cn4nc(C(F)F)c5c4C(F)(F)[C@@H]4C[C@H]54)nc4cc(-c5ccn(CC(C)(C)C)n5)ccc4c3=O)c21 (atropisomer, axis not shown; (P)) [Example 29, N—((S)-1-((3P)-3-(4-chloro-1-methyl-3-(methylsulfonamido)-1H-indazol-7-yl)-7-(1-neopentyl-1H-pyrazol-3-yl)-4-oxo-3,4-dihydroquinazolin-2-yl)-2-(3,5-difluorophenyl)ethyl)-2-((3bS,4aR)-3-(difluoromethyl)-5,5-difluoro-3b,4,4a,5-tetrahydro-1H-cyclopropa[3,4]cyclopenta[1,2-c]pyrazol-1-yl)acetamide]	9.68	> 500 nM
Cn1nc(NS(C)(=O)=O)c2c(Cl)ccc(-n3c([C@H](Cc4cc(F)cc(F)c4)NC(=O)Cn4nc(C(F)F)c5c4C(F)(F)[C@@H]4C[C@H]54)nc4cc(-c5cnn(CC(F)F)c5)ccc4c3=O)c21 (atropisomer, axis not shown; (P)) [Example 34, N—((S)-1-((3P)-3-(4-chloro-1-methyl-3-(methylsulfonamido)-1H-indazol-7-yl)-7-(1-(2,2-difluoroethyl)-1H-pyrazol-4-yl)-4-oxo-3,4-dihydroquinazolin-2-yl)-2-(3,5-difluorophenyl)ethyl)-2-((3bS,4aR)-3-(difluoromethyl)-5,5-difluoro-3b,4,4a,5-tetrahydro-1H-cyclopropa[3,4]cyclopenta[1,2-c]pyrazol-1-yl)acetamide]	10.27	> 100 nM
Cn1nc(NS(C)(=O)=O)c2c(Cl)ccc(-n3c([C@H](Cc4cc(F)cc(F)c4)NC(=O)Cn4nc(C(F)F)c5c4C(F)(F)[C@@H]4C[C@H]54)nc4cc(-c5nc(C(F)(F)F)ccc5F)ccc4c3=O)c21 (atropisomer, axis not shown; (P)) [Example 21, N—((S)-1-((3P)-3-(4-chloro-1-methyl-3-(methylsulfonamido)-1H-indazol-7-yl)-7-(3-fluoro-6-(trifluoromethyl)pyridin-2-yl)-4-oxo-3,4-dihydroquinazolin-2-yl)-2-(3,5-difluorophenyl)ethyl)-2-((3bS,4aR)-3-(difluoromethyl)-5,5-difluoro-3b,4,4a,5-tetrahydro-1H-cyclopropa[3,4]cyclopenta[1,2-c]pyrazol-1-yl)acetamide]	9.82	> 100 nM
Cn1nc(NS(C)(=O)=O)c2c(Cl)ccc(-n3c([C@H](Cc4cc(F)cc(F)c4)NC(=O)Cn4nc(C(F)F)c5c4C(F)(F)[C@@H]4C[C@H]54)nc4cc(-c5cncc(C(F)(F)F)n5)ccc4c3=O)c21 (atropisomer, axis not shown; (P)) [Example 22, N—((S)-1-((3P)-3-(4-chloro-1-methyl-3-(methylsulfonamido)-1H-indazol-7-yl)-4-oxo-7-(6-(trifluoromethyl)pyrazin-2-yl)-3,4-dihydroquinazolin-2-yl)-2-(3,5-difluorophenyl)ethyl)-2-((3bS,4aR)-3-(difluoromethyl)-5,5-difluoro-3b,4,4a,5-tetrahydro-1H-cyclopropa[3,4]cyclopenta[1,2-c]pyrazol-1-yl)acetamide]	10.22	> 100 nM
